Data reported in patent US9187411B2, “Leukotriene B4 antagonist compound” (Eli Lilly and Company, priority 2012, dated 2015).
pIC50: −log10 of the molar value.

Experiments:
[1] = system: LTB4-induced phosphorylation of ERK in monocytes; experiment: Mouse pERK assay in whole blood; format: cell-based, 129SvEv mice; details: Monocyte, 20 nM LTB4
Method: The ability of the compound of Example 2 to block LTB4-induced signaling through BLT1 was assessed in whole blood obtained from healthy human volunteers and from 129SvEv mice that are the model strain for preclinical AAA efficacy evaluation.
Whole blood is collected from 129SvEv mice in 50 mM EDTA (Gibco). For in vitro experiments, 10 point dose response curves of test compounds are assayed at final concentrations of 20 nM-10 μM. 10 point ½ serial dilutions of compound at 1000× of final assayed concentration are prepared in DMSO. Compound is then diluted to 10× in DPBS (DMSO concentration is now 1%). 10 μL of compound dilutions (at 10× diluted in DPBS) or 1% DMSO in DPBS are added to wells of a 96 deep well plate. 80 μL whole blood is added and incubated for 20 min at room temperature (10 μL of anti-mouse LY6G-FITC antibody (BD Pharmingen) and 10 μl of anti-mouse CD11b-APC BD Biosciences at 1 μg/mL final concentrations are added for final 10 min) 11 μL of 10× pre-warmed LTB4 (final concentration 20 nM) is added and incubated at 37° C. for 2 min. Reaction is stopped with 1.5 mL of 1× Phosflow Lyse/Fix from BD Biosciences (pre-warmed to 37° C.). The plate is sealed, vortexed, and incubated at 37° C. for 10 min. Cells are washed once with 1.5 mL DPBS then permeablized with 1 mL BD Perm/Wash buffer (BD Biosciences) for 10 min at room temperature. […]

[2] = system: CaCl2-induced abdominal aortic aneurysm; experiment: CaCl2-induced AAA animal efficacy model, rats; format: in vivo, Sprague-Dawley rats; details: 28 days, aortic lumenal perimeter
Description: A targeted application of a calcium chloride solution to the mouse aorta induces vessel dilatation Chiou et al. J. Surg. Res. (2001), 99: 371-376; Lomgo et al. J. Clin. Invest. (2002), 110: 625-632. Two weeks after treatment, the vessel dilatation compared to the original vessel diameter becomes statistically significant, with up to 75% increase of aortic lumenal perimeter after 4 weeks. Calcium precipitates have been localized primarily within the elastic network of the media. Disruption of this structure by the calcium-elastic tissue complex weakens the vessel wall, contributing to aneurysm formation. This injury also serves as a proinflammatory stimulus, recruiting neutrophils, lymphocytes, monocytes, and mast cells.
Rats: Sprague-Dawley rats, 7-8 weeks of age, are acquired from Harlan, Indianapolis, Ind., USA
Aneurysm Induction Model: All procedures are performed in accordance with Eli Lilly and Company Institutional Animal Care and Use guidelines. Upon their arrival, animals have a one week acclimation period during which they have ad libitum access to standard rodent chow (Purina #2014) and house water. Following the acclimation period, animals are anesthetized with isoflurane, and a laparotomy is performed for the CaCl2-stimulated induction of the abdominal aortic aneurysm (AAA). […] Once isolated, the region of interest (ROI) of the abdominal aorta is wrapped with sterile, cotton gauze presoaked in a 0.25 M CaCl2 solution. In sham control animals, 0.9% saline is substituted for CaCl2. After 7 min, the gauze is removed and a second CaCl2 soaked gauze reapplied. Following the second 7 min period, the gauze is removed, the aorta rinsed with 0.9% saline and the abdomen closed Animals are returned to general housing at the end of their surgical day. Compound Administration: Mice receive test compound (Example 2) by oral gavage at a dose volume of 10 mL/kg of body weight, and rats receive test compound (Example 2) by oral gavage at a dose volume of 2.5 mL/kg of body weight. Compound administration is BID (a.m. and p.m.) with the first dose given one day prior to surgery (p.m.) and the second dose given the morning of surgery. […] The day after surgery, dosing continues BID for 28 days. […] Interior cross sectional lumenal perimeter measurements (mm) are collected at that point to assess efficacy and statistically analyzed with JMP® 7 software (Cary, N.C.). Statistical Analysis: Measurements of lumenal perimeter are expressed as mean values±SE. […]
In a similar study design, the ability of the compound of Example 2 to modulate aortic aneurysm dilation following CaCl2-induced injury is evaluated in Sprague-Dawley rats.

[3] = Exposure (AUC) in the LDLr KO mouse atherosclerosis study; details: male, LDLr KO (JAX #002207), in vivo, LDLr KO mice
Description: LDLr KO mice (JAX #002207), 7 week old males, were obtained from The Jackson Laboratory (Bar Harbor, Me.). Upon arrival at the testing facility and continuing for a total of 10 weeks, mice were housed individually and fed the atherogenic diet TD.88137 (Teklad) ad libitum. During the first 6 weeks, the mice rested undisturbed in their cages. During the last 4 weeks, the mice received the test compound twice daily by oral gavage.

## CCCc1c(NC(=O)CC(C)(C)C(=O)[O-])cccc1OCCCOc1cc(O)c(-c2ccc(F)cc2)cc1CC.[Na+] [Example 2, Sodium 4-[[3-[3-[2-ethyl-4-(4-fluorophenyl)-5-hydroxy-phenoxy]propoxy]-2-propyl-phenyl]amino]-2,2-dimethyl-4-oxo-butanoate]
[1]
  pIC50: 6.61
[2]; 3 mg/kg b.i.d. oral gavage
  % Reduced (±S.E.) of AAA: 46% ± 7
[2]; 10 mg/kg b.i.d. oral gavage
  % Reduced (±S.E.) of AAA: 69% ± 4
[2]; 30 mg/kg b.i.d. oral gavage
  % Reduced (±S.E.) of AAA: 85% ± 5
[2]; 60 mg/kg b.i.d. oral gavage
  % Reduced (±S.E.) of AAA: 69% ± 10
[3]; 3 mg/kg BID oral gavage
  AUC: 1110 ng·h/mL
[3]; 10 mg/kg BID oral gavage
  AUC: 5380 ng·h/mL
[3]; 30 mg/kg BID oral gavage
  AUC: 12800 ng·h/mL
